Experimental data taken from US7608416B2, “Targeting mPGES-1 as a treatment for inflammation which avoids cardiovascular risk” (The Trustees of the University of Pennsylvania, priority 2004, dated 2009).

Legend:
[1] = system: PGI2 biosynthesis (urinary 2,3-dinor 6-keto PGF1α, PGIM); test: Urinary PGIM (2,3-dinor 6-keto PGF1α) excretion, 24 h urine, GC/MS; type: in vivo, mouse; settings: DFU, WT male mice, before vs after administration (FIG. 2)
Description: Eicosanoid analyses: Urinary TxM and PGIM were measured in twenty four hour urines collected in metabolic cages. After extraction and purification by thin layer chromatography, they were analyzed by a stable isotope dilution reverse phase (C18) HPLC/tandem mass spectrometry assay and gas chromatography/mass spectrometry, respectively, as previously described (Egan et al., 2005, Circulation 111: 334-242).
The relative contribution of the PGHS enzymes, PGHS-1 and PGHS-2, to the biosynthesis of PGI2 and TxA2 was assessed by measuring urinary 2,3-dinor 6-keto PGF1α (PGIM) and 2,3-dinor TxB2 (TxM) respectively. […] PGIM and TxM was also assessed in PGHS-1 knockdown (KD) mice. […] Traditional NSAIDS and NSAIDs selective for PGHS-2 inhibit COX activity, not POX activity. Tyr385 in PGHS (ovine PGH-1 numbering) is critical for cyclooxygenase (COX) catalysis, but is uninvolved in peroxidase (POX) activity. PGIM and TxM was also assessed in PGHS-2^Y385F mice, in which the cyclooxygenase, but not the peroxidase (POX) function, of PGHS-2 is inactivated, thereby mimicking the effect of a selective PGHS-2 inhibitor (Yu et al., 2005a, J. Clin. Invest. (Submitted manuscript)).

[2] = system: PGE2 biosynthesis (urinary PGEM); test: Urinary PGEM by LC/MS/MS; type: in vivo, mouse; settings: DFU, WT male mice, vs pre-administration value (FIG. 11)
Description: Urinary PGEM was measured by LC/MS/MS as follows: First, 10 ng of hexadeuterated PGEM (9,15-dioxo-11α-hydroxy-2,3,4,5-tetranor-prostan-1,20-dioic-17,17,18,18,19,19-d6 acid; Cayman Chemical Co., Ann Arbor, Mich.) was added as an internal standard to 0.1 ml of mouse urine. Next, 50 μL of 1 g/ml methoxyamine HCl was added, and the sample was mixed and allowed to stand at room temperature for 15 minutes. The sample was then diluted to 1.0 ml with water and loaded on a StrataX solid phase extraction (SPE) cartridge (Phenomenex, Torrance, Calif.). The SPE was eluted with 1.0 mL of 5% acetonitrile in ethyl acetate, dried, dissolved in 200 μL 10% acetonitrile in water, and injected for LC/MS/MS analysis. Transitions monitored were m/z 385→336 for the endogenous PGE-M and 391→342 for the internal standard.
PGE2 biosynthesis was assessed in mice having inhibited or deleted PGHS-1 or PGHS-2 function using a mass spectrometric assay (FIG. 9) for the major PGE metabolite, 11α-hydroxy-9,15-dioxo-2,3,4,5-tetranor-prostane-1,20-dioic acid (PGEM). […] Thus, unlike PGI2 biosynthesis, both PGHS-1 and PGHS-2 each contribute substantially to PGE2 biosynthesis.

[3] = system: mice; settings: mouse, in vivo
Description: (i) Photochemical vascular injury: This model is an adaptation of one previously described method (Yu et al., 2005, J. Clin. Invest. 115:986-95). Briefly, mice were anesthetized with sodium pentobarbital (80 mg/kg, intraperitoneally). The left common carotid artery was isolated and a Doppler flow probe (Model 0.5 VB, Transonic Systems Co., NY) was applied. The probe was connected to a flowmeter (Transonic Model T105) and interpreted with a computerized data acquisition program (Powerlab, AD Instruments, CO). Just before i.v. injection of Rose Bengal (50 mg/kg body weight, Fisher Scientific, NJ), a 1.5-mW green light laser (540 nm) (Melles Griot Inc, Carlsbad, Calif.) was applied to the desired site of injury at a distance of 5 cm from the carotid artery. Blood flow was monitored up to 120 minutes after injection or until stable occlusion occurred. Stable occlusion was defined as a blood flow of 0 ml/min for 3 minutes. To confirm occlusive thrombosis, carotid arterial segments subjected to injury were excised and embedded in paraffin. Sections were then stained with hematoxylin and eosin.

[4] = target: T1, thromboxane receptor (TP) (Mus musculus, UniProt P30987); test: U46619 induced sudden death; type: in vivo; settings: PGHS-2 KO and PGHS-2 Y385F mice compared to WT, 0.2 mg/kg intravenous, within 15 min
T1 construct: they received a rapid intravenous injection of U46619 (0.2 mg/kg in PBS, Cayman Chemical) via the tail vein; from tissue; host or cells: whole animal: WT, PGHS-2 KO and PGHS-2 Y385F mice, in vivo
T1 sequence (P30987 1-341): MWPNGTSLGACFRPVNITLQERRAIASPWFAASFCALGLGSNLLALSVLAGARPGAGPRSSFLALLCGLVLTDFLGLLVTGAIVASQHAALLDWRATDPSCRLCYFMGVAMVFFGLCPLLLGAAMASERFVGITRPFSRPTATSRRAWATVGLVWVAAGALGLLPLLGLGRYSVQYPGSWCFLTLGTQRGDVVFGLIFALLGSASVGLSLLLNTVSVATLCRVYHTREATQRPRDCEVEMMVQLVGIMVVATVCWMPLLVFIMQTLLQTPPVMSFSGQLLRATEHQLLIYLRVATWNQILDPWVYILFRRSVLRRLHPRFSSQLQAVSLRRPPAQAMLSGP
Description: (iii) U46619 induced sudden death: This model is based on a model established previously (Momi et al., 2000, Eur. J. Pharmacol. 397: 177-85). Briefly, mice (3-4 months old) were anesthetized with sodium pentobarbital. Then they received a rapid intravenous injection of U46619 (0.2 mg/kg in PBS, Cayman Chemical) via the tail vein. Heart rate was monitored for 15 minutes prior to sacrifice.

[5] = system: mice; test: Tail cuff blood pressure measurement; type: in vivo, mouse
Description: (i) Tail Cuff measurement: Resting systolic blood pressure was measured in conscious, 3-4 month old mice using a computerized, noninvasive tail-cuff system, BP-2000 Blood Pressure Analysis System™ (Visitech Systems, Inc. Apex, N.C.). […] Mice were adapted to the system for 14 days by taking blood pressure measurements during 25 minute long sessions. The sessions were held once daily between 15:00 and 18:00. After the adaptation period, blood pressure was recorded daily for 3 consecutive days in the same way. Data were collected and analyzed using updated BP 2000 Analysis Software.

[6] = target: T2, IP (PGI2 receptor) (Mus musculus, UniProt P43252); test: Direct measurement of blood pressure (MAP) after i.v. cicaprost; type: in vivo; settings: 1 μg/kg intravenously; for Maximal decline in MAP from pretreatment baseline: C57BL/6, anesthetized
T2 construct: anesthetized WT, IP^+/−, and IP^−/− littermates on C57BL/6 genetic background, following administration of the IP agonist cicaprost; from tissue; host or cells: whole animal: anesthetized WT, IP+/- and IP-/- mice, C57BL/6 background, in vivo
Description: (§1) (iii) Direct measurement of blood pressure: Mice were anesthetized (ketamine 100 mg/kg, acepromazine 5 mg/kg) and placed on a temperature-controlled panel. The right internal jugular vein and left carotid artery were cannulated with PE-10 tubing. The arterial catheter was connected to a Capto SP844 pressure transducer (Capto, Horten, Norway), and blood pressure (BP) was monitored continuously with a Powerlab/8SP system (AD Instruments Inc, Colorado Springs, Colo.), as previously described (Hui et al., 2004, Circulation 110: 3360-6; Rocca et al., 2000, Nat. Med. 6: 219-21). Blood pressure and heart rate were continuously monitored for 20-40 min until stable values were obtained. After the equilibration period and the baseline BP was recorded, mice were injected via the right internal jugular vein with cicaprost (1 μg/kg in 4 ml/kg saline) as a bolus. The same volume of saline was injected before cicaprost administration to exclude volume-mediated BP changes. The BP was continuously recorded until it returned to pretreatment baseline.
(§2) The cardiovascular consequences of deleting just one copy of the IP on cardiovascular function in vivo was studied. Mean arterial pressure (MAP) was measured directly via carotid artery catheterization in anesthetized WT, IP^+/−, and IP^−/− littermates on C57BL/6 genetic background, following administration of the IP agonist cicaprost (Cica) 1 μg/kg intravenously (FIG. 3). The maximal decline evoked by Cica in MAP was 36±3.5% from pretreatment baseline in WT, 24%±3.3% in IP+/− and 0% in IP−/− littermates(F=42, n=5; P<0.0001). […] A similar effect of IP deletion was seen on the inhibitory effect of 10 nM cicaprost on platelet aggregation induced by collagen 2 μg/ml ex vivo (FIG. 4). […] The impact of IP deletion on the time to thrombotic carotid arterial occlusion, induced by green laser activation of Rose Bengal, which causes free radical catalyzed vascular injury, was also gene-dose dependent (FIG. 5, left panel). The time to occlusion fell from 66.3±5.1 min in WTs to […] in IP^+/− to 29.7±7.6 min in IP^−/− mice (F=6.5, n=9-10, P<0.0055). Inhibition of PGHS-2 by DFU also accelerated thrombogenesis, from 59.4±10.4 min to 33.4±4.3 min (n=7-8, P<0.05; FIG. 5, right panel). Thus, the mean impact of DFU on time to occlusion (56.2% of WT value) was intermediate between that of IP^+/− ([…]) and IP^−/− (45.5%) mice.

[7] = system: IP (PGI2 receptor); test: as above; type: in vivo, mouse; settings: IP-/- mice, 1 μg/kg intravenously
Description: as §1, §2

[8] = system: platelet aggregation induced by collagen; test: Whole blood platelet aggregation assay, collagen-induced, ex vivo; type: cell-based, mouse; settings: 10 nM, collagen 2 μg/ml
Description: 250 μl blood was mixed with 750 μl of sodium chloride at 37° C. Platelet aggregation was performed using a 500 Whole Blood Lumi-Aggregometion System (Chrono-Log Corp, Havertown, Pa.) as previously described ([…] et al., 1983, Thromb. Haemost. 50: 852-6; Booth et al., 1998, Can. J. Physiol. Pharmacol. 76: 811-3; Emery et al., 1995, Arterioscler. Thromb. Vasc. Biol. 15: 748-53). Samples were pretreated with or without 10 nM cicaprost for 1 minute, and aggregation was initiated by addition of 2 μg/ml collagen.

[9] = system: mice; test: Collagen induced platelet consumption; type: in vivo, mouse; settings: WTs, PGHS-2 Y385F and PGHS-2 KO mice, 2 min after i.v. collagen plus epinephrine
Description: (ii) Collagen induced platelet consumption: Briefly, mice (8 weeks old) were weighed and anesthetized with sodium pentobarbital (80 mg/kg). 100 μl of a mixture of collagen (250 μg/ml) and epinephrine (15 μg/ml) in 0.9% NaCl was injected rapidly into the tail vein. […] After thorough mixing, platelets were counted by automated multispecies hematology analyzers (CDC Technologies), as previously described (Gresele et al, 1990, Thromb. Haemost. 64:80-6).

[10] = 3 month old mice, mixed C57BL/6×129/sv, regular chow

T2 sequence (P43252 1-412): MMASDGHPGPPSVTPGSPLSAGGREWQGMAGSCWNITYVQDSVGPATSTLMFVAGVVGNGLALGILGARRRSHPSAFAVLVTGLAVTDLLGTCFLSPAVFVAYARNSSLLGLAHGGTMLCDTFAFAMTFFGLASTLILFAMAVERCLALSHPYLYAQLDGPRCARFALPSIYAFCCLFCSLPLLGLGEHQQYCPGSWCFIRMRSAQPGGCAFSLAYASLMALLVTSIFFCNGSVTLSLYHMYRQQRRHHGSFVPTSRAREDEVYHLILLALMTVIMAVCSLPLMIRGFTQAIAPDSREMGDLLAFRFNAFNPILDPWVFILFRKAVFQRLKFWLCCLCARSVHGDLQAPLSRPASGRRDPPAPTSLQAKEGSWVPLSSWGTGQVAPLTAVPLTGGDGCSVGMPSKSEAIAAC

In the case of `CC1(C)OC(=O)C(c2cccc(F)c2)=C1c1ccc(S(C)(=O)=O)cc1` [DFU, 5,5-dimethyl-3-(3-fluorophenyl)-4-(4-methylsulphonyl)phenyl-2(5H)-furanone], the “Urinary 2,3-dinor 6-keto PGF1α (PGIM)” value [1] is reported as “depressed significantly”, the “Urinary PGEM” value [2] is reported as “depressed PGEM significantly” and the “Mean impact on time to occlusion, % of WT value” [3] is reported as 56.2%.

With `CCCCC[C@H](O)/C=C/[C@@H]1[C@@H](C/C=C\CCCC(=O)O)[C@H]2CO[C@@H]1C2` [U46619] the “Frequency of sudden death” value [4] was “augmented”.

With `Cc1ccc(-c2cc(C(F)(F)F)nn2-c2ccc(S(N)(=O)=O)cc2)cc1` [celecoxib] the “Diastolic blood pressure compared to WTs” value [5, 10] was “elevated significantly”, the “Systolic blood pressure compared to WTs” value [5, 10] was “elevated significantly” and the “Hypertensive effect in PGHS-1 KDs compared to WTs” value ([5]; PGHS-1 KD mice) was “attenuated”.

`CCC#CC[C@H](C)[C@H](O)C#C[C@@H]1[C@H]2C/C(=C/COCC(=O)O)C[C@H]2C[C@H]1O` [cicaprost] was tested, and the “Duration of the depressor response” value ([6]; IP+/- mice) was 5.3 ± 1.1 min, the “Maximal decline in MAP from pretreatment baseline” value (shortened to “Maximal decline in MAP”) ([6]; IP+/- mice) was 24%±3.3 and the “Duration of the depressor response” value ([6]; WT mice) was 10.8 ± 2.5 min. The “Maximal decline in MAP” value ([6]; WT mice) was 36±3.5%, the “Duration of the depressor response” value [7] was “no change in MAP” and the “Maximal decline in MAP” value ([7]; C57BL/6, anesthetized) was 0%. For the same compound, the “Inhibition of platelet aggregation” value ([8]; IP-/- mice) was “not achieved” and the inhibition at 0.01 µM ([8]; Mus musculus, Platelet, IP+/- mice, read-out: Inhibition of platelet aggregation, % of the maximal inhibition observed in WTs) was 86.7%.

In the case of collagen, the Circulating platelet count [9] is reported as “dose-dependent decrese in platelets”.
